# US20210267240A1, “PHOTODETERIORATION INHIBITOR, BEVERAGE COMPRISING THE SAME, AND METHOD FOR INHIBITING PHOTODETERIORATION” (Mitsubishi Gas Chemical Company, Inc., priority 2018, published 2021)
# Assay: Light irradiation storage test of aqueous pyrroloquinoline quinone disodium salt solution in a transparent PET container, HPLC recovery
# Type: physicochemical
# Conditions: used alone, without combination partner
# Method: HPLC conditions: Shimadzu LC-2010 Column: YMC-Pack ODS-A Detection wavelength: 259 nm Mobile phase: 30 mM acetic acid-70 mM ammonium acetate Column temperature: 40° C. Light irradiation apparatus: A plant incubator CLH-301 manufactured by Tomy Seiko Co., Ltd. Light irradiation conditions: 30° C. and 20,000Lx All the contents of Volvic that is a commercially available PET bottle beverage, were removed and the container was washed with water. This transparent container was used as a storage container. 5 to 500 mg of BioPQQ was dissolved in 500 g of water, and the relationship between the concentration and the photodeterioration of BioPQQ was examined. First, a mixture of pyrroloquinoline quinone disodium salt and water was added to the storage container, shaken well, and then submitted to ultrasonication for 1 minute to dissolve the salt. The pH was 3.5. The prepared aqueous solution of pyrroloquinoline quinone disodium salt was stored under the above light irradiation conditions. The concentration of pyrroloquinoline quinone was analyzed by HPLC 5 days after the light irradiation. […] 20 mg of BioPQQ was dissolved in 500 g of water ([…]) in the same manner as described above. To this aqueous solution, 100 mg of Red No. 2 was further added (Example A1). […]
smiles,measurement,value
O=C1O[C@H]([C@@H](O)CO)C(O)=C1O [ascorbic acid],photodeterioration inhibition effect (in words),has a photodeterioration inhibition effect
